Results on one molecule are retold here after US12594258B2, “Inhibitors of MHC-I Nef downmodulation for treating HIV” (priority 2019, dated 2026).

One series has as its system CD4+ T cells. Put plainly: Cell cycle analysis of CD4+ T cells. The series is classed as cell-based, human. The following applies: 0.5 nM.
Series [1] deals with AP-1:Nef:MHC-I complex. As to the kind of experiment: HLA-A2 coimmunoprecipitation in CEM-A2 cells expressing Nef. The format is cell-based. Conditions: 1.25 nM, compared to NH4Cl. The method, then: Immunoprecipitation of CEM cell lysates with BB7.2-conjugated beads was performed as previously described. Briefly, 25×10^6 CEM-A2 cells were transduced with Nef-expressing or control adenovirus. 48 hours post-infection, cells were counted and resuspended at a density of 1×10^6 cells/mL R10 supplemented with 35 mM NH4Cl, 1.25 nM CMA, or solvent control for 24 hours. Cells were pelleted, washed twice in PBS, and lysed in 1% digitonin lysis buffer (1% digitonin (Wako, 043-21371), 100 mM NaCl, 50 mM Tris, pH 7.0, 1 mM CaCl2, and 1 mM MgCl2) as previously described. 1% of the lysate was removed for input controls. […] After pulldown, resin was washed five times in 0.1% digitonin wash buffer, and proteins were eluted by incubating in 150 mM dithiothreitol (Invitrogen) for 30 minutes at 37° C. and analyzed by western blot.
HLA-A2 Coimmunoprecipitation. […] Then, 48 h post infection, cells were counted and resuspended at a density of 1×10^6 cells per milliliter R10 supplemented with 35 mM NH4Cl, 1.25 nM CMA, or solvent control for 24 h. […] After pulldown, resin was washed five times in 0.1% digitonin wash buffer, and proteins were eluted by incubating in 150 mM dithiothreitol (DTT) for 30 min at 37° C. and analyzed by Western blot.

A further series has as its system CEM-A2 cells. Put plainly: Lysotracker Red and Nef activity in CEM-A2 cells. The series is classed as cell-based, human. Conditions: 1.25 nM. The method, then:
Cells were treated with plecomacrolides at a density of 1×10^6 cells/mL for 24 hours, then treated with 100 nM LysoTracker Red DND-99 (Fisher, L7528) in PBS at a density of 1×10^6 cells/mL for 1 hour at 37° C., washed twice in PBS, and fixed in 2% PFA before flow cytometric analysis on a BioRad Ze5 flow cytometer.
To test this directly, CEM-A2 cells transduced with an adenoviral vector expressing Nef were used. This system has been used to study the formation of the AP-1:Nef:MHC-I complex under conditions where ammonium chloride prevents lysosomal degradation. Higher concentrations of CMA were required for reversal of Nef activity in CEM cells. […] This is functionally similar to 0.5 nM CMA treatment in CD4^+ T cells.

The test system of series [2] is AP-1:Nef:MHC-I complex. As to the kind of experiment: GST-tagged MHC-I cytoplasmic tail pull down assay. The series is classed as binding. The text has this:
The His6- and GST-tagged AP-1 core, mouse AP1M1 (157-423) (referred as μ1-CTD), human Arf1 (17-181)-Q71L, human MHC-I (338-365)-NL4-3 Nef, HIV-1 NL4-3 Nef constructs and protein purification were previously described. For GST pull down assay, codon-optimized human MHC-I (338-365) was subcloned into pGST parallel2 vector using BamHI/Xhol sites, fused an N-terminal GST tag and a TEV cleavage site. PCR encoding HIV-1 Nef or SlVsmm Nef fused with GFP was subcloned into LIC 2BT vector (Macrolab), expressed as a TEV-cleavable N-terminal His6 tag and C-terminal uncleavable GFP tag.
GST tagged MHC-I tail was expressed in BL21 (DE3) star cells by induction at 20° C. overnight. The purification was carried out using glutathione-Sepharose 4B resin, the elution was then subjected to a HiLoad 16/60 Superdex 75 column in the buffer of 20 mM Tris pH 8, 150 mM NaCl, 0.1 mM TCEP.

Another series relates to primary CD4+ T cells. Put plainly: MTT and flow cytometric viability assays in primary CD4+ T cells. The series is classed as cell-based, human. How it is done:
CD4^+ T cells were plated at a density of 1×10^5 cells in 200 μL R10-50 in flat-bottom 96-well plates 4 days post-stimulation with PHA. Cells were exposed to titrations of plecomacrolides or solvent controls for 72 hours in culture, at which point viability was assessed relative to solvent by MTT assay in experimental duplicates. Equal volumes of cell culture medium containing CD4^+ T cells were pelleted in 96-well round-bottom plates and incubated in 4.5 mg/mL MTT (Fisher, M6494) in R10 with no Phenol Red at 37° C. until the purple formazan signal was clearly visible. The absorbance of cell pellets resuspended in DMSO was measured at 595 nm on a Molecular Devices Emax precision microplate reader and compared a standard curve of known viable cell numbers to ensure the experimental samples fell within the linear range of the assay.
For orientation: In flow cytometry, cells or beads pass a laser one at a time.

As for `C/C=C/[C@H]1O[C@@](O)([C@@H](C)[C@H](O)[C@H](C)[C@H]2OC(=O)/C(OC)=C/C(C)=C/[C@@H](C)[C@@H](O)[C@@H](CC)[C@@H](O)[C@H](C)C/C(C)=C/C=C/[C@@H]2OC)C[C@@H](O[C@H]2C[C@@H](O)[C@H](OC(N)=O)[C@@H](C)O2)[C@@H]1C` [CMA, concanamycin A], in the series with CD4+ T cells, the “decrease in cells in G2/M” value is on record as “not statistically significant” and the “increase in the proportion of cells in S phase compared to solvent control” value is 1.15 fold. For the same molecule, the “abundance of Nef and AP-1 subunits associating with HLA-A2” value in the series on AP-1:Nef:MHC-I complex [1] was “reproducible reduction in the abundance of Nef, AP-1μ, and AP-1μ1 subunits associating with HLA-A2”. Further, the “Nef inhibition versus intracellular acidification” value in the series with CEM-A2 cells is “inhibited Nef without significantly altering intracellular acidification”. Moreover, the “pulldown of NL4-3 Nef, SIV Nef or AP-1 μ1-CTD by GST-tagged MHC-I cytoplasmic tail” value with AP-1:Nef:MHC-I complex [2] is reported as “did not alter pulldown”. Further, in the series on primary CD4+ T cells (0.5 nM, 24-h incubation), the viability (as a rule, the share of living cells, or the viability signal relative to a control) stood at 95%. Moreover, the “difference between the 50% effective and toxic concentrations (EC50 and TC50)” value in the series with primary CD4+ T cells (Nef activity 24 hours, viability 72 hours) was found to be 11 fold.
